Counter-ions that a name gives are not always drawn. Like-named read-outs stand apart in the source and are kept apart here.
Assays:
[1] = system: experimental bronchial spasms caused by histamine; assay: Bronchospasmolytic action, histamine-induced bronchial spasm (Konzett and Roessler); assay type: in vivo, guinea pig; conditions: Cavia porcellus, urethane-anaesthetized guinea pigs, dose reducing spasm to 50%, read-out: Bronchospasmolytic action (ED50) as compared with histamine
Method: (§1) The test substances were administered in an aqueous solution either by the intravenous (i.v.) or the intraduodenal (i.d.) route. Water-insoluble compounds were applied i.d. in carboxymethyl cellulose suspensions.

[2] = system: experimental bronchial spasms caused by acetyl choline; assay: Bronchospasmolytic action, acetyl choline-induced bronchial spasm (Konzett and Roessler); assay type: in vivo, guinea pig; conditions: Cavia porcellus, urethane-anaesthetized guinea pigs, dose reducing spasm to 50%, read-out: Bronchospasmolytic action (ED50) as compared with acetyl choline
Method: as §1

[3] = system: experimental bronchial spasms caused by serotonin; assay: Bronchospasmolytic action, serotonin-induced bronchial spasm (Konzett and Roessler); assay type: in vivo, guinea pig; conditions: Cavia porcellus, urethane-anaesthetized guinea pigs, dose reducing spasm to 50%, read-out: Bronchospasmolytic action (ED50) as compared with serotonin
Method: as §1

[4] = in vivo; conditions: mouse, ip
Method: The LD50 values or the LD50 ranges were determined according to common standards via the mortality occurring over 7 days with NMRI mice following a single intraperitoneal (i.p.) administration.

**Q.** Which ED50 ([1]; iv) does the source give for `Cc1cc(N2CCSCC2)c([N+](=O)[O-])c(C)n1` [Example 1, 4-(2,6-Dimethyl-3-nitro-4-pyridyl)-thiomorpholinohydrochloride] here?
**A.** 1.05 mg/kg

**Q.** What about the ED50 ([1]; i.d. (intraduodenal)) of the same compound?
**A.** 2.6 mg/kg

**Q.** What about the ED50 ([2]; iv) of the same compound?
**A.** 1.47 mg/kg

**Q.** What about the ED50 ([2]; i.d. (intraduodenal)) of the same compound?
**A.** 4.13 mg/kg

**Q.** What about the ED50 ([3]; iv) of the same compound?
**A.** 1.32 mg/kg

**Q.** What about the ED50 ([3]; i.d. (intraduodenal)) of the same compound?
**A.** 2.52 mg/kg

**Q.** What about the LD50 at 168 h [4] of the same compound?
**A.** 160 mg/kg

**Q.** Which results are given for `Cc1cc(N2CCOCC2)c([N+](=O)[O-])c(C)n1` [Example 9]?
**A.** ED50 ([1]; iv): 1 to 3 mg/kg; ED50 ([2]; iv): 3 to 10 mg/kg; LD50 at 168 h [4]: 300 to 1000 mg/kg

**Q.** For `Cc1cc(N2CCSCC2)c(C#N)c(C)n1` [Example 13], which ED50 ([1]; iv) is on record?
**A.** 1 to 3 mg/kg

**Q.** And the ED50 ([1]; i.d. (intraduodenal))?
**A.** 1 to 3 mg/kg

**Q.** And the ED50 ([2]; iv)?
**A.** 3 mg/kg

**Q.** And the ED50 ([2]; i.d. (intraduodenal))?
**A.** 3 to 10 mg/kg

**Q.** And the ED50 ([3]; iv)?
**A.** 3 mg/kg

**Q.** What about the LD50 at 168 h [4] of the same compound?
**A.** 150 to 300 mg/kg

**Q.** What does the source list for `CCCc1cc(N2CCSCC2)c([N+](=O)[O-])c(CCC)n1` [Example 14]?
**A.** ED50 ([1]; iv): 3 mg/kg; ED50 ([2]; iv): 1 to 3 mg/kg; ED50 ([3]; iv): 3 to 10 mg/kg; LD50 at 168 h [4]: 300 to 600 mg/kg

**Q.** For `Cc1cc(N2CCSC(C)C2)c([N+](=O)[O-])c(C)n1` (centres unmarked) [Example 15], which ED50 ([1]; iv) is on record?
**A.** 3 to 10 mg/kg

**Q.** What about the ED50 ([2]; iv) of the same compound?
**A.** 3 to 10 mg/kg

**Q.** And the LD50 at 168 h [4]?
**A.** 150 to 300 mg/kg

**Q.** Which results are given for `COC(CNc1cc(C)nc(C)c1[N+](=O)[O-])OC` [Example 17]?
**A.** ED50 ([1]; iv): > 10 mg/kg; ED50 ([2]; iv): 3 to 10 mg/kg; LD50 at 168 h [4]: 400 to 800 mg/kg

**Q.** Which results are given for `Cc1cc(NCCCl)c([N+](=O)[O-])c(C)n1` [Example 18]?
**A.** ED50 ([1]; iv): 3 mg/kg; ED50 ([2]; iv): 1 to 3 mg/kg; ED50 ([3]; iv): 1 to 3 mg/kg; LD50 at 168 h [4]: 150 to 300 mg/kg

**Q.** Which results are given for `Cc1cc(NCc2ccc3c(c2)OCO3)c([N+](=O)[O-])c(C)n1` [Example 22]?
**A.** ED50 ([1]; iv): 3 mg/kg; ED50 ([2]; iv): 3 to 10 mg/kg

**Q.** With `Cc1cc(NCc2ccc(S(N)(=O)=O)cc2)c([N+](=O)[O-])c(C)n1` [Example 23] as the compound, how does the ED50 ([1]; iv) read?
**A.** 3 to 10 mg/kg

**Q.** And the ED50 ([2]; iv)?
**A.** 1 to 3 mg/kg

**Q.** And the LD50 at 168 h [4]?
**A.** 600 to 1200 mg/kg

**Q.** For `COc1ccc(CNc2cc(C)nc(C)c2[N+](=O)[O-])cc1` [Example 24], which ED50 ([1]; iv) is on record?
**A.** 0.3 to 1 mg/kg

**Q.** What about the ED50 ([2]; iv) of the same compound?
**A.** 1 to 3 mg/kg

**Q.** And the ED50 ([3]; iv)?
**A.** 1 to 3 mg/kg

**Q.** What about the LD50 at 168 h [4] of the same compound?
**A.** > 600 mg/kg

**Q.** Which ED50 ([1]; iv) does the source give for `Cc1cc(NCCF)c([N+](=O)[O-])c(C)n1` [Example 32] here?
**A.** 1 mg/kg

**Q.** What about the ED50 ([2]; iv) of the same compound?
**A.** 3 to 10 mg/kg

**Q.** And the ED50 ([3]; iv)?
**A.** 1 to 3 mg/kg

**Q.** What about the LD50 at 168 h [4] of the same compound?
**A.** 150 to 300 mg/kg

**Q.** Which ED50 ([1]; iv) does the source give for `Cn1c(=O)c2[nH]cnc2n(C)c1=O` [theophylline-ethylene diamine, reference compound] here?
**A.** 5.6 mg/kg

**Q.** What about the ED50 ([2]; iv) of the same compound?
**A.** 8.3 mg/kg

**Q.** What about the ED50 ([2]; i.d. (intraduodenal)) of the same compound?
**A.** 10 to 20 mg/kg

**Q.** And the ED50 ([3]; iv)?
**A.** 7.3 mg/kg

Source: patent US4289765A, “4-Aminopyridines and medicaments containing the same” (Hoechst Aktiengesellschaft, priority 1979, dated 1981)
